This passage reports GI50 and TGI results from PubChem BioAssay (NCI).

Holding throughout (test): NCI-60 cell line screen, 48 h
Experiment [1] concerns MOLT-4 leukemia.
Experiment [2] deals with DU-145 prostate.
For experiment [3], the system named is SNB-75 CNS.
The test system of experiment [4] is OVCAR-8 ovarian.
Experiment [5] deals with HOP-92 NSCLC.
Experiment [6] relates to 786-0 renal.
For experiment [7], the system named is SK-MEL-28 melanoma.
Experiment [8] has as its system IGROV1 ovarian.
The subject of experiment [9] is KM20L2 colon.

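Five concentrations, 48 hours, 96-well plates. Abbreviation: GI50, concentration required for 50% inhibition of growth. At the TGI there is no net growth.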 Where only a bound is given, the exact number is not on record here.

`CCCc1cc2c(=O)c(C(=O)OC)c[nH]c2cc1N(CC)CC`: the GI50 in experiment [1] was greater than 100 µM; in [2], 20.2 µM; in [3], 18.6 µM; in [4], 29.4 µM; in [5], 19.2 µM; in [6], 19.6 µM. In addition, the values for the GI50 in experiment [7] and in experiment [8] were 81.7 µM and greater than 100 µM, respectively. Also, the TGI in experiment [1] is greater than 100 µM; in experiment [2], 49.6 µM; in [3], 46.3 µM; in experiment [4], 95.7 µM; in experiment [5], 52.7 µM; in experiment [6], 39.8 µM. Further, the TGI in experiment [7] and in experiment [8] was greater than 100 µM throughout.

As for `O=C(Nc1cc(Cl)cc(Cl)c1)c1ccc(NC2=C(Cl)C(=O)N(Cc3ccc(Cl)cc3Cl)C2=O)cc1`, the GI50 in [1] is 0.249 µM; in experiment [2], 20.1 µM; in experiment [3], 68 µM; in experiment [4], 21.6 µM; in experiment [5] it was 9.32 µM; in [6], 3.41 µM. Moreover, the GI50 in [7] is 21.4 µM; in experiment [8], 2.15 µM. The TGI in experiment [1] is 1.53 µM; in experiment [2] it was 50.7 µM; in experiment [3], greater than 100 µM; in experiment [4] it was 87.2 µM; in [5], 27.5 µM; in [6], 35.1 µM. Further, the TGI in experiment [7] stood at 75.8 µM; in experiment [8], 7.17 µM.

In the case of `O=c1c2ccccc2n(C[C@H]2CO2)c2ccccc12`, the GI50 in [1] is 0.29 µM; in [2], 1.35 µM; in [3], 1.52 µM; in experiment [4], 1.26 µM; in experiment [5] it was 2.03 µM; in [6] it was 2.75 µM. Besides, the GI50 in experiment [7] is 2.4 µM; in [8], 1.53 µM. For the same compound, the TGI in experiment [1] was 2.35 µM; in experiment [2], 5.85 µM; in [3], 3.46 µM; in experiment [4], 5.35 µM; in [5], 5.27 µM; in experiment [6], 8.17 µM. Moreover, the TGI in experiment [7] is 5.76 µM; in experiment [8] it was 5.6 µM.

Turning to `CC(=O)[CH-]C(=O)c1ccccc1.CC(=O)[CH-]C(=O)c1ccccc1.[Eu+3].[OH-].[OH3+]`, the GI50 in experiment [1] was greater than 100 µM; in experiment [3], 96.1 µM; in experiment [4], greater than 100 µM; in [5], 7.44 µM; in [6], greater than 100 µM; in [7], greater than 100 µM. Besides, the GI50 in experiment [9] and in experiment [8] was greater than 100 µM each time. Moreover, the TGI in experiment [1] was greater than 100 µM; in experiment [3] it was greater than 100 µM; in [4] it was greater than 100 µM; in experiment [5] it was 99.7 µM; in experiment [6], greater than 100 µM; in [7] it was greater than 100 µM. Moreover, the TGI in experiment [9] and in experiment [8] was greater than 100 µM each time.

Consider `Cn1c(/C=C(\C#N)c2ccccc2)nc2c(N3CCOCC3)nc(Cl)nc21`, for which the GI50 is 0.669 µM in experiment [1]; 1.28 µM in experiment [2]; 0.276 µM in [3]; 1.04 µM in [4]; 0.405 µM in experiment [5]; 1.56 µM in experiment [6]. In addition, the GI50 was 1.57 µM in experiment [7] and 0.871 µM in [8]. The TGI came to 3.12 µM in experiment [1]; 2.56 µM in [2]; 1.59 µM in experiment [3]; 3.39 µM in experiment [4]; 2.06 µM in experiment [5]; 3.05 µM in [6]. Moreover, the figures for the TGI in [7] and in experiment [8] were 2.96 µM and 2.17 µM, respectively.

On to `COC1CC2CCC(C)C(O)(O2)C(=O)C(=O)N2CCCCC2C(=O)OC(C(C)CC2CCC(O)C(OC)C2)CC(=O)C(C)C=C(C)C(O)C(OC)C(=O)C(C)CC(C)/C=C/C=C/C=C1C` (centres undefined), for which the GI50 in [1] is 0.0787 µM; in experiment [2] it was 3.52 µM; in experiment [3], less than 0.005 µM; in experiment [4] it was less than 0.005 µM; in [5], 0.0107 µM; in [6], 5.48 µM. Besides, the GI50 in [7] was 3.23 µM; in experiment [8], less than 0.005 µM. Also, the TGI in experiment [1] was 13.9 µM; in experiment [2], 10.9 µM; in [3], 7.93 µM; in [4], 24.6 µM; in experiment [5], 7.48 µM; in experiment [6] it was 17.3 µM. Further, the TGI turned out to be 11.2 µM in experiment [7] and 11.8 µM in experiment [8].

Turning to `Ic1ccccc1-c1ccccc1`, the GI50 in experiment [1] is 26.8 µM; in experiment [2], greater than 100 µM; in experiment [3] it was greater than 100 µM; in experiment [4], greater than 100 µM; in experiment [5], 13.2 µM; in experiment [6] it was greater than 100 µM. Besides, the GI50 in experiment [7] and in experiment [8] was greater than 100 µM in each case. Also, the TGI in experiment [1], in experiment [2], in experiment [3], in [4], in [5] and in experiment [6] was greater than 100 µM throughout. For the same compound, the TGI in [7] and in [8] was greater than 100 µM in each case.

In the case of `O=C1NC(O)C(c2c[nH]c3ccccc23)=C1c1c[nH]c2ccccc12` (centres undefined), the GI50 is greater than 25 µM in experiment [1]; greater than 25 µM in experiment [2]; greater than 25 µM in experiment [3]; greater than 25 µM in [4]; 4.42 µM in experiment [5]; greater than 25 µM in experiment [6]. The GI50 in [7] and in [8] was greater than 25 µM throughout. Also, the TGI in [1], in experiment [2], in experiment [3], in experiment [4], in experiment [5] and in experiment [6] was greater than 25 µM each time. For the same compound, the TGI in experiment [7] and in [8] was greater than 25 µM throughout.

In the case of `C=C(CN1C(=O)[C@H]2CCCN2C(=O)c2ccccc21)c1ccc(C(=O)O)cc1`, the GI50 in experiment [1], in experiment [2], in experiment [3], in experiment [4], in experiment [5] and in experiment [6] was greater than 100 µM throughout. Moreover, the GI50 in [7] and in experiment [8] was greater than 100 µM in each case. The TGI in [1], in experiment [2], in experiment [3], in experiment [4], in experiment [5] and in [6] was greater than 100 µM each time. The TGI in [7] and in experiment [8] was greater than 100 µM throughout.
